Data: publication PMC9763333, “In vitro characterization of immune modulating drug-eluting immunobeads towards transarterial embolization in cancer” (Scientific Reports, 2022)
Where “and” joins values, the source holds several entries; their conditions need not be identical. Equal values may be shown once. Entries after “also recorded” stand apart in the source; their conditions may differ. Where a name gives a salt, the structure may show the parent alone. Blank lines part the entries; values can stand above or below the molecule they belong to.

What was measured:
[1] = Drug loading into DC Bead LUMI; assay type: physicochemical; conditions: for Relative percent drug loaded in DC Bead LUMI over time / Maximum drug loaded (Triplicate), %: single replicates; for equivalent of drug loaded to sulfonated bead / Maximum drug loaded: mean ± SD; for Maximum drug loaded: n = 3, base form except Dox (salt form); for Drug: sulfonate: molar ratio at maximum loading; for Theoretical maximum loading level based on SO3− contents: per mL DC Bead LUMI, assuming 1:1 drug to sulfonate
Summary of the method: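 Loading done in triplicate; amount loaded = initial drug in loading solution minus drug remaining and cumulative drug withdrawn for sampling. Maximum loading taken when loading-solution concentration stopped changing, before washing; relative % loading expressed on a molar basis against available SO3^- ions, mean ± SD.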

[2] = Drug release from DC Bead LUMI in saline; assay type: physicochemical; conditions: for percent drug eluted from DC Bead LUMI / drug eluted from DC Bead LUMI: saline, single replicates; for percent drug eluted from DC Bead LUMI: percent of drug loaded; for release behaviour in saline: DC Bead LUMI
Summary of the method: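 Beads loaded with drug (62.5 µL of DC Bead LUMI) were placed in 50 mL of saline (0.9 mg/mL, pH 7.4) and rocked upright at 37 °C at speed setting 10 (70 rpm). At each sampling time, 1 mL of medium was taken for drug quantification and replaced with 1 mL of fresh saline pre-warmed to 37 °C. Cumulative release accounted for drug removed in earlier samples, and the 50 mL volume kept sink conditions.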

[3] = cited from earlier work
[4] = Drug solubilization by salt formation in acid; assay type: physicochemical; conditions: for pH at which each drug dissolved for loading: T in °C in parentheses in the cell (20.1 or 21.1)
Summary of the method: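 Drug base suspended in water and titrated with 0.1 N HCl until dissolved, at a final 2.5 mg/mL; solution lyophilized to the hydrochloride salt or used directly for DC Bead LUMI loading. GS-9620 and its decomposition product analyzed by C8 reversed-phase HPLC (UV 230 nm) and LC/MS.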

[5] = parameters: method as in PMID 17483878; conditions: cited from earlier work
[6] = Drug loading into LC Bead; assay type: physicochemical; conditions: per 1 mL LC Bead
Description: Drug loading was performed in triplicate as previously reported[45] with slight modifications. Briefly, 1.3 molar equivalent of each drug was mixed with one molar equivalent of sulfonate group of DC Bead LUMI or LC Bead. The drug-bead mixture was agitated with upright rocking motion at a set maximum rocking speed of 10 which corresponds to 70 rpm, for 144 h at ambient temperature (Ward's® Rotating Mixers, VWR, Bridgeport, NJ). At specified time points (5, 15, 30 and 45 min and then hourly for eight hours followed by 24, 48, 72 and 144 h) a 10 µL aliquot was withdrawn from the loading solution to quantify drug loading based on the change in concentration over time. […] The concentration of drug in each aliquot of loading solution at each time point was quantified by HPLC as described above using a linear standard curve obtained from solutions of known concentration of each drug (7.8–125 μg/mL) versus the detector response as area under the curve. The amount of drug loaded at the specified time points was calculated by subtracting the amount of drug remaining from the initial amount of drug in the loading solution and the cumulative amount of drug withdrawn for sampling. The maximum drug loaded in the beads was calculated once no further change in the concentration in the loading solution could be measured and before washing the beads. […]

[7] = parameters: method as in PMID 28188808; conditions: 0.065 mmol Dox per milliliter of beads, constant agitation, depending on bead size; cited from earlier work

- Relative percent drug loaded in DC Bead LUMI over time ([1]; 5 min): 36.8467% and 31.5632% and 21.322%
- Relative percent drug loaded in DC Bead LUMI over time ([1]; 15 min): 30.3231% and 39.2476% and 47.138%
- Relative percent drug loaded in DC Bead LUMI over time ([1]; 30 min): 47.9681% and 46.426% and 44.5676%
- Relative percent drug loaded in DC Bead LUMI over time ([1]; 45 min): 56.9526% and 51.0915% and 54.8687%
- Relative percent drug loaded in DC Bead LUMI over time ([1]; 60 min): 63.8406% and 58.0947% and 63.6687%
- Relative percent drug loaded in DC Bead LUMI over time ([1]; 120 min): 85.531% and 84.4265% and 85.0145%
- Relative percent drug loaded in DC Bead LUMI over time ([1]; 180 min): 98.296% and 98.7957% and 94.8002%
- Relative percent drug loaded in DC Bead LUMI over time ([1]; 240 min): 106.342% and 112.145% and 106.321%
- Relative percent drug loaded in DC Bead LUMI over time ([1]; 300 min): 111.107% and 116.727% and 112.613%
- Relative percent drug loaded in DC Bead LUMI over time ([1]; 360 min): 115.109% and 120.479% and 108.292%
- Relative percent drug loaded in DC Bead LUMI over time ([1]; 420 min): 117.263% and 122.293% and 119.836%
- Relative percent drug loaded in DC Bead LUMI over time ([1]; 480 min): 118.462% and 124.442% and 121.713%
- Relative percent drug loaded in DC Bead LUMI over time ([1]; 1440 min): 121.282% and 124.78% and 117.021%
- Relative percent drug loaded in DC Bead LUMI over time ([1]; 2880 min): 119.234% and 124.78% and 122.668%
- Relative percent drug loaded in DC Bead LUMI over time ([1]; 4320 min): 118.18% and 124.96% and 121.21%
- Relative percent drug loaded in DC Bead LUMI over time ([1]; 8640 min): 119.5% and 124.96% and 122.329%
- drug loaded above the predicted capacity of the bead ([1]; DC Bead LUMI): approximately 23%
- loading behaviour ([1]; DC Bead LUMI): slower loading
- Relative percent drug loaded (maximum, percent of SO3− available on a molar basis) ([1]; DC Bead LUMI, mean (n = 3), listed as BMS-200): 122.93%
- equivalent of drug loaded to sulfonated bead ([1]; DC Bead LUMI): 0.35 ± 0.01 mM drug/ml beads
- Maximum drug loaded ([1]; DC Bead LUMI): 148.05 ± 2.24 mg drug/ml beads
- Maximum drug loaded (Triplicate), % ([1]; DC Bead LUMI, listed as BMS-200): 121.282% and 124.83% and 122.668%
- Drug: sulfonate ([1]; DC Bead LUMI): 1.223
- Theoretical maximum loading level based on SO3− contents [1]: 120.40 mg and 120.4 mg
- percent drug eluted from DC Bead LUMI ([2]; 5 min): 2.472% and 2.4176% and 2.385%
- drug eluted from DC Bead LUMI ([2]; 5 min): 8.513 µmol and 8.629 µmol and 8.378 µmol
- percent drug eluted from DC Bead LUMI ([2]; 15 min): 2.589% and 2.639% and 2.416%
- percent drug eluted from DC Bead LUMI ([2]; 30 min): 2.762% and 2.728% and 2.934%
- percent drug eluted from DC Bead LUMI ([2]; 45 min): 3.33% and 2.98% and 3.1337%
- percent drug eluted from DC Bead LUMI ([2]; 60 min): 3.248% and 3.3497% and 3.385%
- percent drug eluted from DC Bead LUMI ([2]; 120 min): 4.556% and 3.526% and 4.046%
- percent drug eluted from DC Bead LUMI ([2]; 180 min): 5.055% and 4.61% and 4.461%
- percent drug eluted from DC Bead LUMI ([2]; 240 min): 5.272% and 4.993% and 5.201%
- percent drug eluted from DC Bead LUMI ([2]; 300 min): 5.575% and 5.37% and 5.345%
- percent drug eluted from DC Bead LUMI ([2]; 360 min): 6.559% and 5.753% and 6.275%
- percent drug eluted from DC Bead LUMI ([2]; 420 min): 6.666% and 5.904% and 7.0124%
- percent drug eluted from DC Bead LUMI ([2]; 480 min): 7.32% and 7.2% and 7.286%
- percent drug eluted from DC Bead LUMI ([2]; 1440 min): 11.7204% and 10.5374% and 10.9377%
- percent drug eluted from DC Bead LUMI ([2]; 2880 min): 14.9312% and 14.241% and 13.8435%
- percent drug eluted from DC Bead LUMI ([2]; 4320 min): 16.6252% and 15.679% and 15.9706%
- percent drug eluted from DC Bead LUMI ([2]; 8640 min): 17.1401% and 16.2829% and 16.6995%
- solubilization upon addition of 0.1 N HCl ([4]; 0.1 N HCl, deionized water): did not solubilize
- pH at which each drug dissolved for loading [4]: 2.11 (20.1)
SMILES: COc1nc(OCc2cccc(-c3ccccc3)c2C)ccc1CNCCNC(C)=O [BMS-202]
- drug eluted from DC Bead LUMI ([2]; 15 min): 8.915 µmol and 9.4174 µmol and 8.488 µmol
- drug eluted from DC Bead LUMI ([2]; 30 min): 9.513 µmol and 9.737 µmol and 10.3104 µmol
- drug eluted from DC Bead LUMI ([2]; 45 min): 11.4676 µmol and 10.637 µmol and 11.0105 µmol
- drug eluted from DC Bead LUMI ([2]; 60 min): 11.1858 µmol and 11.9555 µmol and 11.8939 µmol
- drug eluted from DC Bead LUMI ([2]; 120 min): 15.688 µmol and 12.584 µmol and 14.2155 µmol
- drug eluted from DC Bead LUMI ([2]; 180 min): 17.4074 µmol and 16.4551 µmol and 15.6742 µmol
- drug eluted from DC Bead LUMI ([2]; 240 min): 18.1541 µmol and 17.8191 µmol and 18.2734 µmol
- drug eluted from DC Bead LUMI ([2]; 300 min): 19.198 µmol and 19.1657 µmol and 18.7818 µmol
- drug eluted from DC Bead LUMI ([2]; 360 min): 22.5859 µmol and 20.5327 µmol and 22.0468 µmol
- drug eluted from DC Bead LUMI ([2]; 420 min): 22.954 µmol and 21.073 µmol and 24.6387 µmol
- drug eluted from DC Bead LUMI ([2]; 480 min): 25.2083 µmol and 25.6984 µmol and 25.5995 µmol
- drug eluted from DC Bead LUMI ([2]; 1440 min): 40.3605 µmol and 37.6096 µmol and 38.4305 µmol
- drug eluted from DC Bead LUMI ([2]; 2880 min): 51.4172 µmol and 50.828 µmol and 48.6405 µmol
- drug eluted from DC Bead LUMI ([2]; 4320 min): 57.2509 µmol and 55.9606 µmol and 56.1142 µmol
- drug eluted from DC Bead LUMI ([2]; 8640 min): 59.0238 µmol and 58.1158 µmol and 58.6753 µmol
- release behaviour in saline [2]: slow release; also recorded: prolonged release profile
- pKa (literature) [3]: 7.74 (literature) [54]

- drug loaded above the predicted capacity of the bead ([1]; DC Bead LUMI): approximately 23%
- loading behaviour ([1]; DC Bead LUMI): slower loading
- equivalent of drug loaded to sulfonated bead ([1]; DC Bead LUMI): 0.35 ± 0.01 mM drug/ml beads
- Maximum drug loaded ([1]; DC Bead LUMI, listed as Doxorubicin HCl): 204.54 ± 3.87 mg drug/ml beads
- Maximum drug loaded (Triplicate), % ([1]; DC Bead LUMI): 121.32% and 125.547% and 121.757%
- Drug: sulfonate ([1]; DC Bead LUMI): 1.228
- Theoretical maximum loading level based on SO3− contents [1]: 166.50 mg
- Theoretical maximum loading level based on SO3− contents ([1]; listed as Doxorubicin HCl): 166.5 mg
- drug eluted from DC Bead LUMI ([2]; 30 min): 1.239 µmol and 1.282 µmol and 1.112 µmol
- drug eluted from DC Bead LUMI ([2]; 60 min): 1.899 µmol and 1.906 µmol and 1.678 µmol
- drug eluted from DC Bead LUMI ([2]; 120 min): 3.985 µmol and 3.46 µmol and 3.165 µmol
- drug eluted from DC Bead LUMI ([2]; 240 min): 7.976 µmol and 7.077 µmol and 7.054 µmol
- drug eluted from DC Bead LUMI ([2]; 300 min): 9.987 µmol and 9.178 µmol and 9.242 µmol
- release behaviour in saline [2]: slow release
- Dox released from DC Bead LUMI ([2]; Figure 11 legend, mean ± SD, n = 3): 74.4 ± 0.5 µmol Dox/ mL DC Bead LUMI
- average amount of Dox loaded into 1 mL of LC Bead [6]: 33.58 ± 3.08 mg
- pH at which each drug dissolved for loading [4]: 4.2 (21.1)
SMILES: COc1cccc2c1C(=O)c1c(O)c3c(c(O)c1C2=O)C[C@@](O)(C(=O)CO)C[C@@H]3O[C@H]1C[C@H](N)[C@H](O)[C@H](C)O1 [Dox, doxorubicin hydrochloride]
- previously reported amount of Dox loaded into LC Bead [5]: 39.0 ± 3.8 mg/mL
- Maximum drug loaded ([1]; DC Bead LUMI): 204.54 ± 3.87 mg drug/ml beads and 205 ± 4 mg drug/ml beads
- drug eluted from DC Bead LUMI ([2]; 5 min): 0.8697 µmol and 0.7574 µmol and 0.6743 µmol
- drug eluted from DC Bead LUMI ([2]; 15 min): 0.9785 µmol and 0.9763 µmol and 0.879 µmol
- drug eluted from DC Bead LUMI ([2]; 45 min): 1.546 µmol and 1.5359 µmol and 1.496 µmol
- drug eluted from DC Bead LUMI ([2]; 180 min): 6.141 µmol and 6.4405 µmol and 5.733 µmol
- drug eluted from DC Bead LUMI ([2]; 360 min): 12.6965 µmol and 11.2108 µmol and 10.9569 µmol
- drug eluted from DC Bead LUMI ([2]; 420 min): 14.5125 µmol and 12.8898 µmol and 12.4195 µmol
- drug eluted from DC Bead LUMI ([2]; 480 min): 16.4266 µmol and 14.4776 µmol and 14.2688 µmol
- drug eluted from DC Bead LUMI ([2]; 1440 min): 47.172 µmol and 44.3546 µmol and 42.6335 µmol
- drug eluted from DC Bead LUMI ([2]; 2880 min): 68.0842 µmol and 61.0855 µmol and 60.2496 µmol
- drug eluted from DC Bead LUMI ([2]; 4320 min): 76.8802 µmol and 71.2335 µmol and 68.2708 µmol
- drug eluted from DC Bead LUMI ([2]; 8640 min): 74.6523 µmol and 73.8043 µmol and 71.6405 µmol
- time to load drug to DC Bead LUMI [7]: 2 to 3 h
